Measured values taken from patent US5965717A, “Organic pigments from twisted benzidines” (North Carolina State University, priority 1997, dated 1999).

Columns and labels:
[1] = tested on: Salmonella; conditions: cited from earlier work
[2] = tested on: Salmonella typhimurium strains, TA98 and TA100; test: Prival modification of the Ames test, with and without hamster liver S9; assay type: cell-based; conditions: presence and absence of metabolic activation (hamster liver S9)
Description: (§1) The most widely accepted mutagenicity screening test procedure for amines is the Salmonella mammalian microsome mutagenicity assay developed by Ames et al. (Mutat. Res., 31 (1975) 347), hereinafter referred to as the Ames test. Subsequently, a modification of the Ames test was introduced by Prival et al. (Mutat. Res., 97 (2) (1982) 103) specifically for evaluating the mutagenicity of azo compounds, hereinafter referred to as the Prival modification. For a general discussion of mutagenicity as it pertains to colored materials, see, for instance, Freeman et al., Genotoxicity of Azo Dyes: Bases and Implications, Physico-Chemical Principles of Color Chemistry, Advances in Color Chemistry Series, Vol. 4, ed. by A. T. Peters and H. S. Freeman (Blackie Academic Press: Glasgow, 1996) 254-291; Freeman et al., Dyes Pigm. 8 (6) (1987) 431-47; and Freeman et al., CHEMTECH, July (1991), 438-445.
(§2) Mutagenicity testing of the pure derivatives of benzidine was performed using the standard Ames test, as described by Ames et al. (Mutat. Res., 31 (1975) 347). Mutagenicity testing of the various pigments was performed using the standard Ames test, and also using the Prival modification, as described by Prival et al. (Mutat. Res., 97 (2) (1982) 103).
(§3) More particularly, two Salmonella typhimurium strains, TA98 and TA100, were employed for mutagenicity testing. All benzidine derivatives and the pigments made therefrom were evaluated in the presence and absence of metabolic activation. In the Ames test, metabolic activation was achieved using rat liver S9, whereas hamster liver S9 was employed in the Prival modification. A mutagenic response was recorded for a test compound if the number of revertant colonies counted was more than twice the number of spontaneous revertant colonies formed in the absence of the test compound. A nonmutagenic response (Ames negative or Prival negative) was recorded when the number of revertant colonies counted was less than twice the number of spontaneous revertant colonies.

[3] = tested on: Salmonella typhimurium strains, TA98 and TA100; test: Ames test (Salmonella mammalian microsome mutagenicity assay), with and without rat liver S9; assay type: cell-based; conditions: presence and absence of metabolic activation (rat liver S9)
Description: as §1, §2, §3

[4] = in N,N-dimethylformamide (DMF); cited from earlier work

Row | Compound | mutagenicity in the Ames test (prior art) [1] | mutagenicity in the Prival modification [2] | mutagenicity in the Ames test [3] | λmax [4] [nm]
1 | Nc1ccc(-c2ccc(N)c(Cl)c2)cc1Cl [3,3'-dichlorobenzidine] | mutagenic |  |  | 
2 | COc1cc(-c2ccc(N)c(OC)c2)ccc1N [3,3'-dimethoxybenzidine] | mutagenic |  |  | 
3 | Cc1cc(-c2ccc(N)c(C)c2)ccc1N [3,3'-dimethylbenzidine] | mutagenic |  |  | 
4 | Cc1cc(-c2cc(C)c(N)c(C)c2)cc(C)c1N [3,5,3',5'-tetramethylbenzidine] | nonmutagenic |  |  | 
5 | CCCOc1cc(-c2cc(OCCC)c(N=CC3C(=O)NC(=S)NC3=O)cc2C)c(C)cc1N=CC1C(=O)NC(=S)NC1=O [Pigment 93] |  | negative (the number of revertant colonies counted was less than twice the number of spontaneous revertant colonies) | negative (the number of revertant colonies counted was less than twice the number of spontaneous revertant colonies) | 
6 | CCCOc1cc(-c2cc(OCCC)c(NN=C(C(C)=O)C(=O)Nc3ccccc3)cc2C)c(C)cc1NN=C(C(C)=O)C(=O)Nc1ccccc1 [Pigment 95] |  | negative (the number of revertant colonies counted was less than twice the number of spontaneous revertant colonies) | negative (the number of revertant colonies counted was less than twice the number of spontaneous revertant colonies) | 
7 | CCCOc1cc(-c2cc(OCCC)c(NN=C(C(C)=O)C(=O)Nc3ccccc3OC)cc2OC)c(OC)cc1NN=C(C(C)=O)C(=O)Nc1ccccc1OC [Pigment 98] |  | negative (the number of revertant colonies counted was less than twice the number of spontaneous revertant colonies) | negative (the number of revertant colonies counted was less than twice the number of spontaneous revertant colonies) | 
8 | CCCOc1cc(-c2cc(OCCC)c(NN=C(C(C)=O)C(=O)Nc3ccccc3OC)cc2Cl)c(Cl)cc1NN=C(C(C)=O)C(=O)Nc1ccccc1OC [Pigment 107] |  | negative (the number of revertant colonies counted was less than twice the number of spontaneous revertant colonies) | negative (the number of revertant colonies counted was less than twice the number of spontaneous revertant colonies) | 
9 | CCCOc1cc(-c2cc(OCCC)c(NN=C3C(=O)N(c4ccccc4)N=C3C)cc2C)c(C)cc1NN=C1C(=O)N(c2ccccc2)N=C1C [Pigment 108] |  | negative (the number of revertant colonies counted was less than twice the number of spontaneous revertant colonies) | negative (the number of revertant colonies counted was less than twice the number of spontaneous revertant colonies) | 
10 | CCCOc1cc(-c2cc(OCCC)c(NN=C(C(C)=O)C(=O)Nc3ccc4[nH]c(=O)[nH]c4c3)cc2C)c(C)cc1NN=C(C(C)=O)C(=O)Nc1ccc2[nH]c(=O)[nH]c2c1 [Pigment 113] |  | negative (the number of revertant colonies counted was less than twice the number of spontaneous revertant colonies) | negative (the number of revertant colonies counted was less than twice the number of spontaneous revertant colonies) | 
11 | COc1cc(-c2ccc(NN=C(C(C)=O)C(=O)Nc3ccccc3)c(OC)c2)ccc1NN=C(C(C)=O)C(=O)Nc1ccccc1 [compound 1] |  |  |  | 445
12 | COc1ccccc1NN=C(C(C)=O)C(=O)Nc1ccccc1 [compound 2] |  |  |  | 392
13 | CCCOc1cc(-c2cc(OCCC)c(N)cc2C)c(C)cc1N [compound 12, 2,2'-dimethyl-5,5'-dipropoxybenzidine] |  |  | Ames negative (the number of revertant colonies counted was less than twice the number of spontaneous revertant colonies) | 
14 | CCCOc1cc(-c2cc(OCCC)c(N)cc2OC)c(OC)cc1N [compound 26, 2,2'-dimethoxy-5,5'-dipropoxybenzidine] |  |  | Ames negative (the number of revertant colonies counted was less than twice the number of spontaneous revertant colonies) | 
